Holding throughout (format): binding
Test [1] relates to CBP. Nature of the test: In vitro CBP inhibition (AlphaScreen, biotinylated H4-tetraacetyl peptide). To be noted: selectivity CBP vs BRD4. The method, then:
(§1) The CBP-inhibitory activity of the compounds described herein was determined by calculating the IC50. More specifically, CBP inhibitor activity was assayed as follows: CBP was cloned and expressed in E. coli as His-tag protein and purified by Nickel affinity and gel-filtration chromatography. […] CBP binding and inhibition is assessed by monitoring the interaction of biotinylated H4-tetraacetyl peptide (AnaSpec, H4K5/8/12/16(Ac), biotin-labeled) with the target using the AlphaScreen technology (Perkin Elmer). In a 384-well ProxiPlate CBP (50 nM final) was combined with peptide (20 nM final) in 50 mM HEPES (pH 7.3), 10 mM NaCl, 0.25 mM TCEP, 0.1% (w/v) BSA, and 0.005% (w/v) Brij-35 either in the presence of DMSO (final 0.4% DMSO) or compound dilution series in DMSO. After 20 min incubation at room temp, Alpha-streptavidin donor beads and Nickel Chelate acceptor beads were added to a final concentration of 5 μg/mL.
(§2) The ability of the compounds disclosed herein to inhibit CBP activity was quantified and the respective IC50 value determined.

Test [2] has as its target CBP (Homo sapiens, UniProt Q92793). The test is described as above. The protocol:
as §1, §2

In test [3] the target is BRD4 (Homo sapiens (Human), UniProt O60885). Briefly: In vitro enzyme inhibition assay - BRD4 inhibition. To be noted: BRD4 BD1.

Like-named read-outs stand apart in the source and are kept apart here. Bounds are passed on as bounds.

Sequence of CBP (Homo sapiens, UniProt Q92793) (Q92793 2-2442 limits assumed): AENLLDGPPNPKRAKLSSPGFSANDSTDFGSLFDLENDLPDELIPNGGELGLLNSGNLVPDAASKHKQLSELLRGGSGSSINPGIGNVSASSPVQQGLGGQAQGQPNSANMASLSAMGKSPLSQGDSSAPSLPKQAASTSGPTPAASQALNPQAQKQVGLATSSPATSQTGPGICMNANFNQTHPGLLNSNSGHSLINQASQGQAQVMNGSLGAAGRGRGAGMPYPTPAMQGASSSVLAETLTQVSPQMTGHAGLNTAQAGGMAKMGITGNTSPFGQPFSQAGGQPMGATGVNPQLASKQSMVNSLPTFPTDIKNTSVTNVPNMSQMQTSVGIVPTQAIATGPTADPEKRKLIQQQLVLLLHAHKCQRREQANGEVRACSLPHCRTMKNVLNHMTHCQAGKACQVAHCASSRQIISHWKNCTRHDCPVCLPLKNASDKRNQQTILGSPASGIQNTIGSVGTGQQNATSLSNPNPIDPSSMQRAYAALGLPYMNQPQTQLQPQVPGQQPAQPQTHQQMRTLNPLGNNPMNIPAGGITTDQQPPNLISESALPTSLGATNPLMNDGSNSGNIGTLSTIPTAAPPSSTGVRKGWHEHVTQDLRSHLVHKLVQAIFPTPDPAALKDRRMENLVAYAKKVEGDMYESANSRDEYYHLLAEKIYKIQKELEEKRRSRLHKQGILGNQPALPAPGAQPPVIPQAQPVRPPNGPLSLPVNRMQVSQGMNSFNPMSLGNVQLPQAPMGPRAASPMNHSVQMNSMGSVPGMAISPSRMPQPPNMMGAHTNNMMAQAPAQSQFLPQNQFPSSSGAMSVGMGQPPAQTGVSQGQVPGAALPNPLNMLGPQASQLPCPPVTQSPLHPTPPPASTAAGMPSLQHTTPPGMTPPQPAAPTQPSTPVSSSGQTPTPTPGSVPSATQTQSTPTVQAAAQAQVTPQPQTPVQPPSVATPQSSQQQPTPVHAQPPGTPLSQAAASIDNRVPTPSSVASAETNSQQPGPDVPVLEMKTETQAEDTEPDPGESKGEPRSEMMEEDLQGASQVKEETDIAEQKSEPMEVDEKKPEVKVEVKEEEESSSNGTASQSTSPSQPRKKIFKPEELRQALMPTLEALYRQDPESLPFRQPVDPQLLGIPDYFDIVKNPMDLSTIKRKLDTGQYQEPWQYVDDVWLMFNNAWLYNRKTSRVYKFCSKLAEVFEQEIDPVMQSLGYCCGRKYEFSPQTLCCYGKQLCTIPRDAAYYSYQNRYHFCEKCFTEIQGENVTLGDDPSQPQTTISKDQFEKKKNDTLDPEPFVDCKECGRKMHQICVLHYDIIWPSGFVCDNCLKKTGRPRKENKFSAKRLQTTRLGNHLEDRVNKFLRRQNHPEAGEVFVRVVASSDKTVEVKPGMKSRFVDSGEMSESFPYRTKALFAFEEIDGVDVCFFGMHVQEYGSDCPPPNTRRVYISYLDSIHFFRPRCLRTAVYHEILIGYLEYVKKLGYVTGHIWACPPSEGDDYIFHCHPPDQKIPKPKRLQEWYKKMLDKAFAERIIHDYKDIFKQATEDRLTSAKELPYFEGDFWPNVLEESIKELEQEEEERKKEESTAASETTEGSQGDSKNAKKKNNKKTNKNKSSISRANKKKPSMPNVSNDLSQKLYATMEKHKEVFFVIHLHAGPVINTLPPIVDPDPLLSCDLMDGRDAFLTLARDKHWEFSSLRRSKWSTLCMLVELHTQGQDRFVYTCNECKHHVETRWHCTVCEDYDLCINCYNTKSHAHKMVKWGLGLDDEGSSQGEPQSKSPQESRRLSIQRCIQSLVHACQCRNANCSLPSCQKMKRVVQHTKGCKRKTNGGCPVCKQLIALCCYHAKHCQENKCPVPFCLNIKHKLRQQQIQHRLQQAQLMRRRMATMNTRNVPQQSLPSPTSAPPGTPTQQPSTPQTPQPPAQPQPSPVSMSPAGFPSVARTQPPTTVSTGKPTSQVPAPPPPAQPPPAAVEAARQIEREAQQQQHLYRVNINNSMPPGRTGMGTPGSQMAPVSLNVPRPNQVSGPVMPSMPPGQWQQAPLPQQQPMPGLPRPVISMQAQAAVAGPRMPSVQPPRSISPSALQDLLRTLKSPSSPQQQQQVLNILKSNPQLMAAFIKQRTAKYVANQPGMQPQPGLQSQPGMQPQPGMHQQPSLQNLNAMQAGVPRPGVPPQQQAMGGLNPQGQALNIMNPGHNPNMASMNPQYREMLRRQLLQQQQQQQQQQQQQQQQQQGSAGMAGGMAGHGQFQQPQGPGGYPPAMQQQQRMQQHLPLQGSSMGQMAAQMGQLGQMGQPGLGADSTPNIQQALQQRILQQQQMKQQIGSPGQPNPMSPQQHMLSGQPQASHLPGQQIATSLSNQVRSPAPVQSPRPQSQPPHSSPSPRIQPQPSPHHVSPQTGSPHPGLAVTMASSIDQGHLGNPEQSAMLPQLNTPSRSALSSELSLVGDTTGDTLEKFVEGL

Regarding `Cn1cc(-c2cnn(Cc3ccccc3)c2)c(-n2cccc2)cc1=O` [5-(1-benzyl-1H-pyrazol-4-yl)-1-methyl-4-(1H-pyrrol-1-yl)pyridin-2(1H)-one], in test [1], the “IC50 for CBP compared with IC50 for BRD4” value is reported as “lower IC50 for CBP than for BRD4”.

Broadly, the IC50 is the point on the concentration scale where inhibition reaches its midpoint. For the compound `CCOc1cc(=O)n(C)cc1-c1cnn(C(C)c2ccccc2)c1` (stereo not shown) [Example 39, 4-ethoxy-1-methyl-5-(1-(1-phenylethyl)-1H-pyrazol-4-yl) pyridin-2(1H)-one], the half-maximal inhibitory concentration (IC50) in test [2] (read-out: CBP IC50) is under 500 nM.

For the compound “1-methyl-5-(1-(1-phenylethyl)-1H- pyrazol-4-yl)-4-(pyrrolidin-1-yl) pyridin-2(1H)-one [Example 41]”, the IC50 in test [3] was 500 to 5000 nM; in test [2] (read-out: CBP IC50), under 500 nM; in test [2] (read-out: CRREBBP IC50), under 500 nM.

With `CNC(=O)[C@@H]1CCN(c2cc(=O)n(C)cc2-c2cnn(Cc3ccccc3)c2)C1` [Example 88], the IC50 in test [2] (read-out: CBP IC50) is under 500 nM.

As to `CN(C)CCCOc1ccc(-c2cc(=O)n(C)cc2-c2cnn(-c3cccc(Cl)c3C#N)c2)cn1` [Example 356, 2-chloro-6-(4-(6-(3-(dimethylamino)propoxy)-1′-methyl-6′-oxo-1′,6′-dihydro-[3,4′-bipyridin]-3′-yl)-1H-pyrazol-1-yl)benzonitrile], the concentration for half-maximal inhibition (IC50) in test [2] (read-out: CBP IC50) was under 500 nM.
